Measurements taken from patent US20110190336A1, “AZABENZIMIDAZOLONES” (CARA THERAPEUTICS, INC., priority 2008, published 2011).

target: T1, human DP2 receptor (Homo sapiens, UniProt Q9Y5Y4); assay: Measurement of inhibition of intracellular cAMP induction (LANCE cAMP TR-FRET); type: cell-based; settings: human DP2 cells, 4 μM NKH-477 pre-stimulation, 30 nM PGD2; read-out: EC50, antagonism of intracellular cAMP induction
T1 construct: expressed in transfected cells; host or cells: CHO-K1 FLP-In (Invitrogen, catalog no. R758-07), stably transfected
T1 sequence (Q9Y5Y4 1-395): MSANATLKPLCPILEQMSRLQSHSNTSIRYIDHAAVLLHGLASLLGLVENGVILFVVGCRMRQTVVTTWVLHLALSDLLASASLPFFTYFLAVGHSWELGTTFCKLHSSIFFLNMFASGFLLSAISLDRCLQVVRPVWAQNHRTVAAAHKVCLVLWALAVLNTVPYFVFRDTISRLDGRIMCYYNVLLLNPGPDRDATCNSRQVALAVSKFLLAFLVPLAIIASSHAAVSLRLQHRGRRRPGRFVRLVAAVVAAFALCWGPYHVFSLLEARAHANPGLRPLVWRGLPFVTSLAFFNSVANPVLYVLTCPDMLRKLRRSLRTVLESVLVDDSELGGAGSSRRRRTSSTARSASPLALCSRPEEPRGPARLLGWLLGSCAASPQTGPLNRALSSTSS
Description: The ability of compounds to act as antagonists or agonists at the human DP2 receptor was determined by measuring changes in intracellular cAMP levels using a LANCE cAMP detection kit (PerkinElmer, catalog no. AD0264) utilizing time-resolved fluorescence resonance energy transfer (TR-FRET).
Human DP2 cells were grown as described above. Cells were diluted to 2×10^5 cells/mL, and pre-incubated with 0.5 mM […] or IBMX (Sigma, catalog no. I7018). Antibody was added to all the cells as per the manufacturer's instructions. For antagonist experiments, cells were then pre-stimulated for 15 minutes with 4 μM of the water soluble forskolin derivative NKH-477 (Tocris, catalog no. 1603) to increase intracellular cAMP levels. An aliquot of cells was removed for use in uninduced controls. […] After a three hour equilibration, plates were read on an Envision multi-mode detector (PerkinElmer). TR-FRET was measured using a 330-380 nm excitation filter, 615 and 665 nm emission filters, and a 380 nm dichroic mirror set at a Z-height of 11 mm.
The cAMP concentration in each well was back-calculated from a cAMP standard curve run concurrently with each assay. Cyclic AMP responses were expressed as a percent of the difference between the maximum and minimum responses, determined from the induced and uninduced controls, respectively. […]

Structure (SMILES) | EC50 [nM]
CS(=O)(=O)c1ccccc1S(=O)(=O)N1CCC(n2c(=O)n(CC(=O)O)c3cccnc32)CC1 [Compound 63, 2-(3-(1-(2-(methylsulfonyl)phenyl-sulfonyl)piperidin-4-yl)-2-oxo-2,3-dihydro-1H-imidazo[4,5-b]pyridin-1-yl)acetic acid] | < 1000

same assay, conditions: intracellular cAMP, human DP2 cells

Structure (SMILES) | mode of action at human DP2 (antagonist or agonist)
CS(=O)(=O)c1ccccc1S(=O)(=O)N1CCC(n2c(=O)n(CC(=O)O)c3cccnc32)CC1 [Compound 63, 2-(3-(1-(2-(methylsulfonyl)phenyl-sulfonyl)piperidin-4-yl)-2-oxo-2,3-dihydro-1H-imidazo[4,5-b]pyridin-1-yl)acetic acid] | antagonist

target: T1, human DP2 receptor; assay: Prostaglandin D2 binding inhibition assay (scintillation proximity assay, 3H PGD2, membranes of transfected CHO cells); settings: SPA, 5.5 nM 3H PGD2, CHO-K1 FLP-In human DP2 membranes; upper limit determinable 30 μM; read-out: IC50 ranges for inhibition of PGD2 binding to human DP2
In short: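 Membranes (5 μg) from CHO-K1 cells stably expressing human DP2 were mixed with WGA SPA beads and 5.5 nM 3H PGD2 in Tris buffer with 10 mM MgCl2, 100 mM NaCl, 0.1% BSA, plus compound. After 60 min at room temperature, CPM were read; IC50 from two-parameter nonlinear regression.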

Structure (SMILES) | IC50 [nM]
O=C(O)Cn1c(=O)n(C2CCN(S(=O)(=O)c3ccc(F)cc3Cl)CC2)c2cnccc21 [Compound 150, 2-(3-(1-(2-chloro-4-fluorophenylsulfonyl)piperidin-4-yl)-2-oxo-2,3-dihydro-1H-imidazo[4,5-c]pyridin-1-yl)acetic acid] | > 30000
Cc1ccc(S(=O)(=O)N2CCC(n3c(=O)n(CC(=O)O)c4cccnc43)CC2)s1 [Compound 53, 2-(3-(1-(5-methylthiophen-2-ylsulfonyl)piperidin-4-yl)-2-oxo-2,3-dihydro-1H-imidazo[4,5-b]pyridin-1-yl)acetic acid] | 1000 to 10000
CS(=O)(=O)c1ccccc1S(=O)(=O)N1CCC(n2c(=O)n(CC(=O)O)c3cccnc32)CC1 [Compound 63, 2-(3-(1-(2-(methylsulfonyl)phenyl-sulfonyl)piperidin-4-yl)-2-oxo-2,3-dihydro-1H-imidazo[4,5-b]pyridin-1-yl)acetic acid] | < 1000
Cc1cc(S(=O)(=O)N2CCC(n3c(=O)n(CC(=O)O)c4cccnc43)CC2)ccc1F [Compound 95, 2-(3-(1-(4-fluoro-3-methylphenylsulfonyl)piperidin-4-yl)-2-oxo-2,3-dihydro-1H-imidazo[4,5-b]pyridin-1-yl)acetic acid] | 1000 to 10000
CCCCOc1ccc(S(=O)(=O)N2CCC(n3c(=O)n(CC(=O)O)c4cccnc43)CC2)cc1 [Compound 98, 2-(3-(1-(4-butoxyphenylsulfonyl)piperidin-4-yl)-2-oxo-2,3-dihydro-1H-imidazo[4,5-b]pyridin-1-yl)acetic acid] | < 1000
O=C(O)Cn1c(=O)n(C2CCN(S(=O)(=O)Cc3ccc(F)cc3)CC2)c2ncccc21 [Compound 64, 2-(3-(1-(4-fluorobenzylsulfonyl)piperidin-4-yl)-2-oxo-2,3-dihydro-1H-imidazo[4,5-b]pyridin-1-yl)acetic acid] | < 1000
O=C(O)Cn1c(=O)n(C2CCN(S(=O)(=O)c3cc(F)c(F)cc3F)CC2)c2ncccc21 [Compound 92, 2-(2-oxo-3-(1-(2,4,5-trifluoro-phenylsulfonyl)piperidin-4-yl)-2,3-dihydro-1H-imidazo[4,5-b]pyridin-1-yl)acetic acid] | 1000 to 10000
CS(=O)(=O)c1ccccc1S(=O)(=O)N1CCC(n2c(=O)n(CC(=O)O)c3cccnc32)C1 (stereo not drawn) [Compound 111, 2-(3-(1-(2-(methylsulfonyl)phenylsulfonyl)pyrrolidin-3-yl)-2-oxo-2,3-dihydro-1H-imidazo[4,5-b]pyridin-1-yl)acetic acid] | < 1000
O=C(O)Cn1c(=O)n([C@@H]2CCCN(S(=O)(=O)c3ccc(F)cc3Cl)C2)c2ncccc21 [Compound 114, (R)-2-(3-(1-(2-chloro-4-fluorophenylsulfonyl)piperidin-3-yl)-2-oxo-2,3-dihydro-1H-imidazo[4,5-b]pyridin-1-yl)acetic acid] | < 1000
Cc1cc(F)ccc1S(=O)(=O)N1CCC(n2c(=O)n(CC(=O)O)c3cnccc32)CC1 [Compound 144, 2-(1-(1-(4-fluoro-2-methylphenylsulfonyl)piperidin-4-yl)-2-oxo-1H-imidazo[4,5-c]pyridin-3(2H)-yl)acetic acid] | > 30000
